Each block holds one compound with its values, some of them ahead of it.
System: NCI-H510 multicellular tumor spheroid growth, % test/control
Experiment: Anticancer human tumor NCI-H510 cell line growth inhibition [Asc];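 further: spheroids exposed to agents for 7 days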;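 on viability, T/C: 100% = DMSO vehicle control wells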
Settings: for IC50: curve of first compound; for viability, T/C: stronger effect = lower value
Procedure, shortened: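 Concentration series start at each agent's clinical Cmax, or at 10 microM when none is established, and drop in half-log steps; agents are applied alone or together to complex spheroids built with HUVEC and hMSC.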

[1] = second compound 0.01 µM, first compound 0.0316 µM
[2] = second compound 0.01 µM, first compound 0.1 µM
[3] = second compound 0.01 µM, first compound 0.316 µM
[4] = second compound 0.01 µM, first compound 1 µM
[5] = second compound 0.01 µM, first compound 3.16 µM
[6] = second compound 0.01 µM, first compound 10 µM
[7] = second compound 0.0316 µM, first compound 0.0316 µM
[8] = second compound 0.0316 µM, first compound 0.1 µM
[9] = second compound 0.0316 µM, first compound 0.316 µM
[10] = second compound 0.0316 µM, first compound 1 µM
[11] = second compound 0.0316 µM, first compound 3.16 µM
[12] = second compound 0.0316 µM, first compound 10 µM
[13] = second compound 0.1 µM, first compound 0.0316 µM
[14] = second compound 0.1 µM, first compound 0.1 µM
[15] = second compound 0.1 µM, first compound 0.316 µM
[16] = second compound 0.1 µM, first compound 1 µM
[17] = second compound 0.1 µM, first compound 3.16 µM
[18] = second compound 0.1 µM, first compound 10 µM
[19] = second compound 0.316 µM, first compound 0.0316 µM
[20] = second compound 0.316 µM, first compound 0.1 µM
[21] = second compound 0.316 µM, first compound 0.316 µM
[22] = second compound 0.316 µM, first compound 1 µM
[23] = second compound 0.316 µM, first compound 3.16 µM
[24] = second compound 0.316 µM, first compound 10 µM
[25] = second compound 1 µM, first compound 0.0316 µM
[26] = second compound 1 µM, first compound 0.1 µM
[27] = second compound 1 µM, first compound 0.316 µM
[28] = second compound 1 µM, first compound 1 µM
[29] = second compound 1 µM, first compound 3.16 µM
[30] = second compound 1 µM, first compound 10 µM

IC50 (second compound 0.01 µM): 1960 nM | IC50 (second compound 0.0316 µM): 1860 nM | IC50 (second compound 0.1 µM): 1750 nM | IC50 (second compound 0.316 µM): 1700 nM | IC50 (second compound 1 µM): 1830 nM
Compound: C=C(F)C(=O)N1CCN(c2nc(OCC3CCCN3C)nc3c2CCN(c2cccc4cccc(Cl)c24)C3)CC1CC#N (stereo not given) + CNC(C)C(=O)NC1CN(S(=O)(=O)c2cccc(S(=O)(=O)N3CCC4CCC(C(=O)NC(c5ccccc5)c5ccccc5)N4C(=O)C(NC(=O)C(C)NC)C3)c2)CCC2CCC(C(=O)NC(c3ccccc3)c3ccccc3)N2C1=O
viability, T/C [1]: 125% | viability, T/C [2]: 117% | viability, T/C [3]: 108% | viability, T/C [4]: 116% | viability, T/C [5]: 2.75% | viability, T/C [6]: 0.14% | viability, T/C [7]: 115% | viability, T/C [8]: 101% | viability, T/C [9]: 104% | viability, T/C [10]: 108% | viability, T/C [11]: 1.63% | viability, T/C [12]: 0.13% | viability, T/C [13]: 102% | viability, T/C [14]: 119% | viability, T/C [15]: 110% | viability, T/C [16]: 96.4% | viability, T/C [17]: 1.1% | viability, T/C [18]: 0.14% | viability, T/C [19]: 97.4% | viability, T/C [20]: 124% | viability, T/C [21]: 115% | viability, T/C [22]: 89.4% | viability, T/C [23]: 4.39% | viability, T/C [24]: 0.13% | viability, T/C [25]: 115% | viability, T/C [26]: 105% | viability, T/C [27]: 108% | viability, T/C [28]: 104% | viability, T/C [29]: 0.85% | viability, T/C [30]: 0.22%

IC50 (second compound 0.01 µM): > 10000 nM | IC50 (second compound 0.0316 µM): > 10000 nM | IC50 (second compound 0.1 µM): > 10000 nM | IC50 (second compound 0.316 µM): > 10000 nM | IC50 (second compound 1 µM): > 10000 nM
Compound: C=CC(=O)N1CCN(c2nc(=O)n(-c3c(C)ccnc3C(C)C)c3nc(-c4c(O)cccc4F)c(F)cc23)C(C)C1 (stereo not given) + CNC(C)C(=O)NC1CN(S(=O)(=O)c2cccc(S(=O)(=O)N3CCC4CCC(C(=O)NC(c5ccccc5)c5ccccc5)N4C(=O)C(NC(=O)C(C)NC)C3)c2)CCC2CCC(C(=O)NC(c3ccccc3)c3ccccc3)N2C1=O
viability, T/C [1]: 115% | viability, T/C [2]: 101% | viability, T/C [3]: 102% | viability, T/C [4]: 115% | viability, T/C [5]: 113% | viability, T/C [6]: 115% | viability, T/C [7]: 105% | viability, T/C [8]: 108% | viability, T/C [9]: 95.6% | viability, T/C [10]: 119% | viability, T/C [11]: 104% | viability, T/C [12]: 110% | viability, T/C [13]: 112% | viability, T/C [14]: 95.8% | viability, T/C [15]: 102% | viability, T/C [16]: 91.9% | viability, T/C [17]: 105% | viability, T/C [18]: 106% | viability, T/C [19]: 110% | viability, T/C [20]: 113% | viability, T/C [21]: 102% | viability, T/C [22]: 95.8% | viability, T/C [23]: 104% | viability, T/C [24]: 93.3% | viability, T/C [25]: 96.5% | viability, T/C [26]: 105% | viability, T/C [27]: 107% | viability, T/C [28]: 101% | viability, T/C [29]: 98.2% | viability, T/C [30]: 110%

IC50 (second compound 0.01 µM): > 3000 nM | IC50 (second compound 0.0316 µM): > 3000 nM | IC50 (second compound 0.1 µM): > 3000 nM | IC50 (second compound 0.316 µM): > 3000 nM | IC50 (second compound 1 µM): > 3000 nM
Compound: CCN1C(C(=O)NC23CCC(C(=O)O)(CC2)CC3)C(c2cccc(Cl)c2F)C2(C(=O)Nc3cc(Cl)ccc32)C12CCCCC2 (stereo not given) + CNC(C)C(=O)NC1CN(S(=O)(=O)c2cccc(S(=O)(=O)N3CCC4CCC(C(=O)NC(c5ccccc5)c5ccccc5)N4C(=O)C(NC(=O)C(C)NC)C3)c2)CCC2CCC(C(=O)NC(c3ccccc3)c3ccccc3)N2C1=O
viability, T/C (second compound 0.01 µM, first compound 0.00949 µM): 130% | viability, T/C (second compound 0.01 µM, first compound 0.03 µM): 104% | viability, T/C (second compound 0.01 µM, first compound 0.0949 µM): 101% | viability, T/C (second compound 0.01 µM, first compound 0.3 µM): 96.7% | viability, T/C (second compound 0.01 µM, first compound 0.949 µM): 108% | viability, T/C (second compound 0.01 µM, first compound 3 µM): 104% | viability, T/C (second compound 0.0316 µM, first compound 0.00949 µM): 108% | viability, T/C (second compound 0.0316 µM, first compound 0.03 µM): 98.3% | viability, T/C (second compound 0.0316 µM, first compound 0.0949 µM): 97.8% | viability, T/C (second compound 0.0316 µM, first compound 0.3 µM): 117% | viability, T/C (second compound 0.0316 µM, first compound 0.949 µM): 131% | viability, T/C (second compound 0.0316 µM, first compound 3 µM): 90.9% | viability, T/C (second compound 0.1 µM, first compound 0.00949 µM): 108% | viability, T/C (second compound 0.1 µM, first compound 0.03 µM): 113% | viability, T/C (second compound 0.1 µM, first compound 0.0949 µM): 106% | viability, T/C (second compound 0.1 µM, first compound 0.3 µM): 101% | viability, T/C (second compound 0.1 µM, first compound 0.949 µM): 93.5% | viability, T/C (second compound 0.1 µM, first compound 3 µM): 121% | viability, T/C (second compound 0.316 µM, first compound 0.00949 µM): 95.3% | viability, T/C (second compound 0.316 µM, first compound 0.03 µM): 117% | viability, T/C (second compound 0.316 µM, first compound 0.0949 µM): 95.5% | viability, T/C (second compound 0.316 µM, first compound 0.3 µM): 109% | viability, T/C (second compound 0.316 µM, first compound 0.949 µM): 92.9% | viability, T/C (second compound 0.316 µM, first compound 3 µM): 107% | viability, T/C (second compound 1 µM, first compound 0.00949 µM): 96.6% | viability, T/C (second compound 1 µM, first compound 0.03 µM): 97.1% | viability, T/C (second compound 1 µM, first compound 0.0949 µM): 94.8% | viability, T/C (second compound 1 µM, first compound 0.3 µM): 99.2% | viability, T/C (second compound 1 µM, first compound 0.949 µM): 97.8% | viability, T/C (second compound 1 µM, first compound 3 µM): 115%

IC50 (second compound 0.01 µM): > 1000 nM | IC50 (second compound 0.0316 µM): > 1000 nM | IC50 (second compound 0.1 µM): > 1000 nM | IC50 (second compound 0.316 µM): > 1000 nM | IC50 (second compound 1 µM): > 1000 nM
Compound: COc1c(OCCCN2CCOCC2)ccc2c3n(c(=NC(=O)c4cnc(N)nc4)nc12)CCN3 + CNC(C)C(=O)NC1CN(S(=O)(=O)c2cccc(S(=O)(=O)N3CCC4CCC(C(=O)NC(c5ccccc5)c5ccccc5)N4C(=O)C(NC(=O)C(C)NC)C3)c2)CCC2CCC(C(=O)NC(c3ccccc3)c3ccccc3)N2C1=O
viability, T/C (second compound 0.01 µM, first compound 0.00316 µM): 119% | viability, T/C (second compound 0.01 µM, first compound 0.01 µM): 104% | viability, T/C [1]: 118% | viability, T/C [2]: 130% | viability, T/C [3]: 127% | viability, T/C [4]: 128% | viability, T/C (second compound 0.0316 µM, first compound 0.00316 µM): 106% | viability, T/C (second compound 0.0316 µM, first compound 0.01 µM): 114% | viability, T/C [7]: 125% | viability, T/C [8]: 117% | viability, T/C [9]: 120% | viability, T/C [10]: 113% | viability, T/C (second compound 0.1 µM, first compound 0.00316 µM): 92.2% | viability, T/C (second compound 0.1 µM, first compound 0.01 µM): 109% | viability, T/C [13]: 106% | viability, T/C [14]: 128% | viability, T/C [15]: 112% | viability, T/C [16]: 125% | viability, T/C (second compound 0.316 µM, first compound 0.00316 µM): 115% | viability, T/C (second compound 0.316 µM, first compound 0.01 µM): 104% | viability, T/C [19]: 108% | viability, T/C [20]: 105% | viability, T/C [21]: 121% | viability, T/C [22]: 109% | viability, T/C (second compound 1 µM, first compound 0.00316 µM): 107% | viability, T/C (second compound 1 µM, first compound 0.01 µM): 113% | viability, T/C [25]: 112% | viability, T/C [26]: 139% | viability, T/C [27]: 116% | viability, T/C [28]: 110%

From PubChem BioAssay AID1963438 (Molecular Pharmacology Branch, DTP, NCI, 2024)
